Experimental data reported in ChEMBL document CHEMBL1201862, “PubChem BioAssay data set” (2004).
Calls of active or inactive are those of the source.

Assays:
[1] = viability loss in HepG2 hepatoma cells – cell-based, ATP luminescence, cherry-pick, activator set 2, cytotoxicity control, dose response (AID 1053143); assay type: functional
HeLa = assay: viability loss in HeLa cells – cell-based, ATP luminescence, cherry-pick samples, cytotoxicity control, dose response (AID 687004); assay type: functional; conditions: Homo sapiens
[2] = viability loss in HeLa cells – cytotoxicity control for MgcRacGAP inhibitor project, dose response (AID 624300); assay type: functional
[3] = molecular target: T1, Rac GTPase-activating protein 1 (Homo sapiens, UniProt Q9H0H5); assay: blockers of MgcRacGAP-driven Rac1 GTP hydrolysis – biochemical, ADP Hunter fluorescence, primary and confirmatory, confirmation (AID 624330); assay type: functional
T1 sequence (Q9H0H5 whole entry): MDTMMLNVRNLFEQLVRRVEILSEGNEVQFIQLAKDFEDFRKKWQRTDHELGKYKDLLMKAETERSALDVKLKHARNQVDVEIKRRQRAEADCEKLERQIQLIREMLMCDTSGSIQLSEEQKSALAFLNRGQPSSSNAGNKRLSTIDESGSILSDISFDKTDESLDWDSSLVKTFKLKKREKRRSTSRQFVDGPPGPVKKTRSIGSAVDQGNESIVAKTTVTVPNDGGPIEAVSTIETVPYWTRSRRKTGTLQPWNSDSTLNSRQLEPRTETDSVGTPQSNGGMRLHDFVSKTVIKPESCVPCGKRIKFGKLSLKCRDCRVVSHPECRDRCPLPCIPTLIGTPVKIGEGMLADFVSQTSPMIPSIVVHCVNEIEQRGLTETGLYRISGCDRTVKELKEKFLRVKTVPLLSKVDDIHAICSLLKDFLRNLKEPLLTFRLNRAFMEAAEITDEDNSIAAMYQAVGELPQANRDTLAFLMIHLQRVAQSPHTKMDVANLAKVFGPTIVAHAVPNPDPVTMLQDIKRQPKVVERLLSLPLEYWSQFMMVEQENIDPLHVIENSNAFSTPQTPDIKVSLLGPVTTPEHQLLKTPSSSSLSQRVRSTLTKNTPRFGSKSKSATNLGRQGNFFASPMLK

Major prion protein = Major prion protein (Homo sapiens, UniProt P04156); assay type: functional, cell-based
cells [4] = assay: cells
[5] = molecular target: Mitogen-activated protein kinase 10 (Homo sapiens, UniProt P53779); assay: Dose response biochemical screening assay for inhibitors of c-Jun N-Terminal Kinase 3 (JNK3). [Related pubchem assays: 746 ]
[6] = intracellular Trypanosoma cruzi inhibitors in host cells – cell-based, plate reader, cherry-pick samples, set 3, dose response (AID 651818); assay type: functional;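 further: compounds incubated with infected cells for about four days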
[7] = mouse fibroblast viability loss – cell-based, cherry-pick samples, set 2, cytotoxicity control for T. cruzi growth inhibitor project, dose response (AID 651817); assay type: functional; conditions: NIH3T3
[8] = HGIII-sPLA2 enzyme inhibition potency – biochemical, QFRET, IC50, dose response (AID 743457);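 further: green fluorescence rise as the enzyme cleaves BODIPY PC-A2 in liposomes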
[9] = Luminescence Cell-Based Dose Response HTS to Identify Activators of Luciferase Translation or Activity in H4 […] Cells. [Related pubchem assays: 1829 (Project Summary), 1814 (Primary HTS)]; assay type: functional
H4 = assay: Luminescence Cell-Based Dose Response HTS to Identify Activators of 5'UTR Stem-Loop Driven Prion Protein mRNA Translation in H4 Neuroglioblastoma Cells. [Related pubchem assays: 1829 (Project Summary), 1814 (Primary HTS)]; assay type: functional; conditions: Homo sapiens
[10] = molecular target: T2, Nuclear receptor subfamily 0 group B member 1 (Homo sapiens, UniProt P51843); assay: Luminescence-based cell-based high throughput dose response assay for inhibitors of the orphan nuclear receptor subfamily 0, group B, member 1 (DAX1; NR0B1). [Related pubchem assays (depositor defined):AID504766, AID504790]; assay type: functional
T2 sequence (P51843 whole entry): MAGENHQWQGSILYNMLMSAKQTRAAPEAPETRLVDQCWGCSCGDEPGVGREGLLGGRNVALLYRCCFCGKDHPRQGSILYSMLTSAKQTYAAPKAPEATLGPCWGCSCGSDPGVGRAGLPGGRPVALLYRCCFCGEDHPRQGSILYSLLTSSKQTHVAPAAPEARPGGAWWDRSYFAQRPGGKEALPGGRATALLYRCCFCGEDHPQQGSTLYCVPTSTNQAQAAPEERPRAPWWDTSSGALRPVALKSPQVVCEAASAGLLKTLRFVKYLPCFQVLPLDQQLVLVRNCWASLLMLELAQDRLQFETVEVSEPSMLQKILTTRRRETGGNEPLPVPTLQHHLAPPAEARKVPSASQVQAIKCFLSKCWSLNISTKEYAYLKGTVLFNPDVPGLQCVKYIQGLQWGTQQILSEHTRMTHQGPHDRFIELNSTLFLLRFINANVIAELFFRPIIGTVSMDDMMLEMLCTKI

[11] = molecular target: T3, Heat shock factor protein 1 (Mus musculus, UniProt P38532); assay: decrease of HSF1-responsive luciferase luminescence – cell-based, NIH3T3, dose retest, confirmation (AID 2382); assay type: functional;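 further: NIH3T3 fibroblasts with HSF1-driven luciferase reporter stressed by proteasome inhibitor MG132; luminescence from HSF1-driven luciferase expression after 8 hours of MG132 stress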
T3 sequence (P38532 whole entry): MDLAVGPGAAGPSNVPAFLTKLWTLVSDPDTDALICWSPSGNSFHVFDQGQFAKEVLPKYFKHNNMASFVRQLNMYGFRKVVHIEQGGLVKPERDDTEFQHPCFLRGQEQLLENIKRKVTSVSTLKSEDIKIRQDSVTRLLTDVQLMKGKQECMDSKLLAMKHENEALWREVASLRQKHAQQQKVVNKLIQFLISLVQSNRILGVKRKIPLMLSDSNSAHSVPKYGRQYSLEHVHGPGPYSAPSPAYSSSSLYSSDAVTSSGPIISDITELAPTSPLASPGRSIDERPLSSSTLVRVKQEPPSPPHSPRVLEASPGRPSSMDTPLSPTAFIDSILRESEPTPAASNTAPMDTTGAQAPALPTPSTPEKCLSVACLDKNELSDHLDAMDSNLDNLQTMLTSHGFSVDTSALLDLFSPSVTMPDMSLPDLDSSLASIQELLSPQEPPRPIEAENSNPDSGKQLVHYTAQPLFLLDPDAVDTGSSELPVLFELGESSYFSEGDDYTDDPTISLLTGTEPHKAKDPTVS

[12] = THP-1 cell cytotoxicity, dose response, cytotoxicity control for non-replicating M. tuberculosis project (AID 489025); assay type: functional
HEK293 = assay: cells; assay type: functional, cell-based; conditions: Homo sapiens
[13] = HepG2 cell cytotoxicity, dose response, cytotoxicity control for non-replicating M. tuberculosis project (AID 489018); assay type: functional; conditions: Mycobacterium tuberculosis
[14] = Vero E6 cell cytotoxicity, dose response, cytotoxicity control for non-replicating M. tuberculosis project, secondary assay (AID 492998); assay type: functional, VeroE6; conditions: Vero C1008
Beta-galactosidase = Beta-galactosidase (Escherichia coli, UniProt Q8VNN2); assay: Dose response counterscreen for EBI2 assay utilizing the enzyme, b-galactosidase.; assay type: functional
cells [15] = assay type: functional, cell-based
[16] = molecular target: T4, Trace amine-associated receptor 1 (Homo sapiens, UniProt Q96RJ0); assay: Fluorescence-based cell-based high throughput dose response assay to identify agonists of the human trace amine associated receptor 1 (TAAR1).; assay type: functional
T4 sequence (Q96RJ0 whole entry): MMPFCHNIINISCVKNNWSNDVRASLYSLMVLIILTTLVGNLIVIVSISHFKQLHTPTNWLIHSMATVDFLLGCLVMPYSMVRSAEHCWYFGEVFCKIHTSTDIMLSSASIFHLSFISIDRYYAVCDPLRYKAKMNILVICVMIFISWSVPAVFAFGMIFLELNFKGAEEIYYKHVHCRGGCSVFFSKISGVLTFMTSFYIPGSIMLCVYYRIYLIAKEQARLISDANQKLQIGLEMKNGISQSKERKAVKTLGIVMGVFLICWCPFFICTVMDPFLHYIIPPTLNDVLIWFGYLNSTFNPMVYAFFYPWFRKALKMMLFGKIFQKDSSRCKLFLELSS

[17] = molecular target: T4, Trace amine-associated receptor 1; assay: Counterscreen for agonists of the human trace amine associated receptor 1 (hTAAR1): Fluorescence-based cell-based high throughput dose response assay to identify hTAAR1 agonist that also desensitize TAAR1 receptor response.; assay type: functional
cells [18] = assay type: functional, cell-based; remark: listed apart in the source
Streptococcus = assay: GAS UMAA2166 growth inhibition – luminescence, BacTiterGlo, counter-screen for streptokinase expression inhibitor project, dose response (AID 1915); assay type: functional, organism-based;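 further: potency for reduction of bacterial viability or growth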
[19] = test system: Streptococcus sp. 'group A'; assay: Streptococcus pyogenes SK(-)GAS viability under kanamycin – luminescence, BacTiterGlo, confirmation, counter-screen for streptokinase expression inhibitor project, dose response (AID 1900); assay type: functional, organism-based
Cytochrome P450 2D6 = Cytochrome P450 2D6 (Homo sapiens, UniProt P10635);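 further: CYP2D6 member of a cytochrome P450 panel assay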
[20] = NIH3T3 cell viability loss – ATP luminescence, mouse fibroblasts, counter-screen, dose response (AID 2010); assay type: functional, cell-based;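 further: cells exposed to compound for about 90 hours before reading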
[21] = Trypanosoma cruzi growth suppression in host cells – NIH3T3 host cells, beta-gal luminescence, confirmation (AID 2044); assay type: functional, cell-based;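 further: intracellular parasites grown in NIH/3T3 mouse fibroblasts as host cells; luminescent beta-galactosidase reporter signal from transgenic T. cruzi replicating inside host cells; inhibitors lower the luminescence signal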
[22] = molecular target: T5, Corticotropin-releasing factor receptor 2/Corticotropin-releasing factor-binding protein (Homo sapiens, UniProt P24387+Q13324); assay: activators of CRF receptor 2 with binding protein – uHTS hits, confirmation (AID 602473); assay type: functional; conditions: read-out: EC50_Mean
T5 sequence (Q13324 whole entry): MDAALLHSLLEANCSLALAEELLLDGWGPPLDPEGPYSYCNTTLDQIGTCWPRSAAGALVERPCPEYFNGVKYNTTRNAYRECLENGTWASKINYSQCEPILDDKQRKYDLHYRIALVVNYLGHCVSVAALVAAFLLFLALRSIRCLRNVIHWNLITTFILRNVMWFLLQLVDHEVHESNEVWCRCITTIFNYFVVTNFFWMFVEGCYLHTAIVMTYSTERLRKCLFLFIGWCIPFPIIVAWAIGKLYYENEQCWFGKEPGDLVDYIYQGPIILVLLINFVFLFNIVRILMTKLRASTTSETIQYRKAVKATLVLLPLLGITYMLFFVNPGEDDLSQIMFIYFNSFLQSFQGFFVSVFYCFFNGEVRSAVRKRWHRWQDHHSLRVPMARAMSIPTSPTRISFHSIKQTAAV
T5 sequence (P24387 whole entry): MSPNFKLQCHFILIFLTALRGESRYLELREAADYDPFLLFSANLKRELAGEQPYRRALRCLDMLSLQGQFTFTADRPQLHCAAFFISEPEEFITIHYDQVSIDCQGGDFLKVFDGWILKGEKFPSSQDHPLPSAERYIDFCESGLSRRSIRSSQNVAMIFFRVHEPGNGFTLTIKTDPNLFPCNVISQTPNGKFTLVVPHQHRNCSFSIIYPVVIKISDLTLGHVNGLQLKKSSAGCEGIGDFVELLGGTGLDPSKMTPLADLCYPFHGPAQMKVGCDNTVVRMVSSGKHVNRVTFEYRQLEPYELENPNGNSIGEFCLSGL

[23] = molecular target: DNA repair protein RAD52 homolog (Homo sapiens, UniProt P43351); assay type: functional, biochemical
[24] = molecular target: T5, Corticotropin-releasing factor receptor 2/Corticotropin-releasing factor-binding protein; assay: Dose Response confirmation of uHTS hits for small molecule antagonists of the CRF-binding protein and CRF-R2 receptor complex.; assay type: functional; conditions: read-out: IC50_Mean

Cc1ccc2c(c1)-c1nc3ccccc3cc1/C2=N/C1CCCCC1
AC50 [1]: 22.2 µM (active)

CO[C@H]1CN(C)C(=O)c2cc(NS(=O)(=O)CC(F)(F)F)ccc2OC[C@@H](C)N(Cc2cccnc2)C[C@@H]1C
AC50 (HeLa): 21.5 µM (active)

CC1CC(=O)N(c2ccc(NCCc3ccc(O)cc3)c([N+](=O)[O-])c2)C1=O (centres undefined)
CC50 [2]: 100 µM (active) | IC50 [3]: 52.9 µM (active)

Cn1c(N2CCC(C(N)=O)CC2)nc2c1c(=O)n(Cc1cccc(Br)c1)c(=O)n2C
IC50 (Major prion protein): 8.38 µM (active) | IC50 (cells [4]): > 138 µM (inactive)

COC(=O)c1sccc1NC(=O)C1CC=CCC1C(=O)O (centres undefined)
IC50 (Major prion protein): 2.48 µM (active) | IC50 [5]: 19.8 µM (not active) | IC50 (cells [4]): > 138 µM (inactive)

C[C@H](CO)N1C[C@H](C)[C@@H](CN(C)Cc2ccccc2)Oc2c(NC(=O)c3ccncc3)cccc2C1=O
AC50 [6]: 0.179 µM (active) | AC50 [7]: 39 µM (inactive)

C[C@H](CO)N1C[C@H](C)[C@H](CN(C)S(=O)(=O)c2ccc(Cl)cc2)Oc2c(NC(=O)c3nc4ccccc4s3)cccc2C1=O
AC50 [7]: 21.9 µM (active)

Fc1ccc(-n2c(S)nnc2-c2ccc3c(c2)OCO3)cc1Cl
IC50 [8]: > 122 µM (inactive)

Nc1ccccc1C(=O)NNC1=C(C(=O)C(F)(F)F)CCC1
EC50 [9]: 39.2 µM (active) | EC50 (H4): 21.7 µM (active) | IC50 [10]: > 67.5 µM (inactive) | EC50 [11]: 36.6 µM (active) | CC50 [12]: 14.1 µM (active) | IC50 (HEK293): > 2.5 µM (active) | CC50 [13]: > 20 µM (active) | AC50 [1]: 26 µM (active) | CC50 [14]: > 20 µM (active)

COc1ccc(-c2cn(-c3ccc(OC)cc3)c(S)n2)cc1
IC50 (Beta-galactosidase): > 80 µM (inactive)

CC1(C)CC(=O)C(C(=O)/C=C/NCCc2ccccc2)C(=O)C1
IC50 (cells [15]): > 29.9 µM (inactive) | EC50 [16]: 1.46 µM (active) | IC50 [17]: 7.8 µM (active) | EC50 (cells [18]): > 29.9 µM (inactive)

COc1ccc(/C=C/C(=O)NC(=S)NNC(=O)c2ccco2)cc1
IC50 [8]: 34.9 µM (inactive) | EC50 (Streptococcus): 3.29 µM (active) | EC50 [19]: 1.72 µM (active)

c1ccc2cc(CC3=NCCN3)ccc2c1
IC50 (cells [15]): > 30 µM (inactive) | EC50 [16]: 0.322 µM (active) | IC50 [17]: 3.65 µM (active) | EC50 (cells [18]): > 30 µM (inactive) | AC50 (Cytochrome P450 2D6): 39.8 µM (inconclusive)

Cc1ccc2cc(NC(=O)c3ccccc3)ccc2n1
AC50 (HeLa): > 52 µM (inactive)

COCc1cc([S+]([O-])c2ccc(Cl)cc2)nc(C)n1 (centres undefined)
EC50 [20]: > 60 µM (not active) | CC50 [2]: 95 µM (active) | IC50 [3]: 87.8 µM (active) | EC50 [21]: 1.78 µM (active)

Cc1ccc(S(=O)(=O)N2CCN(C(=O)COc3ccc(Br)cc3)CC2)cc1
IC50 (Beta-galactosidase): > 80 µM (inactive)

Cc1ccc(-c2c[n+](CC(=O)Nc3nc(-c4ccc(F)cc4)cs3)c3n2CCC3)cc1
EC50 [22]: > 53 µM (inactive) | AC50 [23]: 11.2 µM (active) | IC50 [24]: > 47.1 µM (inactive)
